Results on 26 compounds are retold here after patent US11649237B2, “Substituted imidazo[1,5-a]pyrazines for IRE1 inhibition” (Optikira LLC, priority 2017, dated 2023).

SMILES strings stand for the structures. pIC50: −log10 of the molar value.

This test relates to XBP-1 splicing in ARPE-19 cells or apoptosis of INS-1 cells expressing mIRE-1. Briefly: Cellular assay (XBP1 splicing assay or apoptosis assay). It is filed as cell-based. As to conditions: data are for the XBP1 splicing assay or the apoptosis assay (not specified per compound). The procedure:
ARPE-19 cells stably expressing XBP-1 (a.a. 1-376) with nano-luciferase gene sequence linked so it is in frame when XBP-1 is spliced, were cultured in F12 media, 10% FBS, 0.044% sodium bicarbonate, 150 μg/ml hygromycin B and seeded for assays at 5,000 cells in 384 well plates in culture media without hygromycin B and incubated at 37° C./5% CO2. […] After further incubation of 30 minutes thapsigargin was added (final concentration 150 nM) and then another 4 hour incubation. A NanoLuc luciferase assay (Promega) was used according to the manufacturer's instructions to detect the luciferase and luminescence measured on a luminometer (EnVision, PerkinElmer).
Doxycycline (final concentration 100 nM) was added and plates incubated for a further 72 hours. To determine the proportion of apoptotic cells Hoechst 33342 (final concentration 10 μg/mL) was added, then after 30 minutes incubation cells imaged and analyzed on an InCell high content imager.
Consider `CCc1nc(-c2ccc(NC(=O)Nc3cccc(C(F)(F)F)c3)c3ccccc23)c2c(N)ncc(CN3CCNCC3)n12` [Example 20, 3-{4-[8-amino-3-ethyl-5-(piperazin-1-ylmethyl)imidazo[1,5-a]pyrazin-1-yl]naphthalen-1-yl}-1-[3-(trifluoromethyl)phenyl]urea], for which the pIC50 was 6.33.

`CC(C)c1nc(-c2ccc(NS(=O)(=O)Cc3ccccc3Cl)c(F)c2)c2c(N)ncc(CN3CCNCC3)n12` [Example 36, N-(4-(8-amino-3-isopropyl-5-(piperazin-1-ylmethyl)imidazo[1,5-a]pyrazin-1-yl)-2-fluorophenyl)-1-(2-chlorophenyl)methanesulfonamide] showed a pIC50 of 5.82.

`Cc1cccc2nc(Cc3ccc(-c4nc(C(C)C)n5c(CN6CCNCC6)cnc(N)c45)c4ccccc34)[nH]c12` [Example 37, 3-isopropyl-1-(4-((7-methyl-1H-benzo[d]imidazol-2-yl)methyl)naphthalen-1-yl)-5-(piperazin-1-ylmethyl)imidazo[1,5-a]pyrazin-8-amine]: the negative-log IC50 (pIC50) is 6.49.

In the case of `Cc1nc(-c2ccc(NC(=O)Nc3cccc(C(F)(F)F)c3)c3ccccc23)c2c(N)ncc(C3CCCNC3)n12` (centres unmarked) [Example 40, 3-{4-[8-amino-3-methyl-5-(piperidin-3-yl)imidazo[1,5-a]pyrazin-1-yl]naphthalen-1-yl}-1-[3-(trifluoromethyl)phenyl]urea], the negative logarithm of the IC50 (pIC50) is 6.55.

`CNC1CC=C(c2cnc(N)c3c(-c4ccc(CC(=O)Nc5cc(F)cc(C#N)c5)c5ccccc45)nc(C(C)C)n23)CC1` (centres unmarked) [Example 67, 2-(4-(8-amino-3-isopropyl-5-(4-(methylamino)cyclohex-1-en-1-yl)imidazo[1,5-a]pyrazin-1-yl)naphthalen-1-yl)-N-(3-cyano-5-fluorophenyl)acetamide] gave a pIC50 of 6.68.

`CNC1CC=C(c2cnc(N)c3c(-c4ccc(CC(=O)Nc5ccccn5)c5ccccc45)nc(C(C)C)n23)CC1` (centres unmarked) [Example 68, 2-(4-(8-amino-3-isopropyl-5-(4-(methylamino)cyclohex-1-en-1-yl)imidazo[1,5-a]pyrazin-1-yl)naphthalen-1-yl)-N-(pyridin-2-yl)acetamide] had a negative-log IC50 (pIC50) of 6.37.

Consider `CNC1CC=C(c2cnc(N)c3c(-c4ccc(CC(=O)Nc5cncc(OC)c5)c5ccccc45)nc(C(C)C)n23)CC1` (centres unmarked) [Example 69, 2-(4-(8-amino-3-isopropyl-5-(4-(methylamino)cyclohex-1-en-1-yl)imidazo[1,5-a]pyrazin-1-yl)naphthalen-1-yl)-N-(5-methoxypyridin-3-yl)acetamide], for which the negative-log IC50 (pIC50) is 6.46.

As to `CNC1CC=C(c2cnc(N)c3c(-c4ccc(CC(=O)Nc5cccc(C#N)c5)c5ccccc45)nc(C(C)C)n23)CC1` (centres unmarked) [Example 70, 2-(4-(8-amino-3-isopropyl-5-(4-(methylamino)cyclohex-1-en-1-yl)imidazo[1,5-a]pyrazin-1-yl)naphthalen-1-yl)-N-(3-cyanophenyl)acetamide], the pIC50 is 6.85.

For the compound `CNC1CC=C(c2cnc(N)c3c(-c4ccc(CC(=O)Nc5cccc(OC)c5)c5ccccc45)nc(C(C)C)n23)CC1` (centres unmarked) [Example 71, 2-(4-(8-amino-3-isopropyl-5-(4-(methylamino)cyclohex-1-en-1-yl)imidazo[1,5-a]pyrazin-1-yl)naphthalen-1-yl)-N-(3-methoxyphenyl)acetamide], the pIC50 was 7.21.

With `CNC1CC=C(c2cnc(N)c3c(-c4cccc5c(CC(=O)Nc6cccc(F)c6)cccc45)nc(C(C)C)n23)CC1` (centres unmarked) [Example 81, 2-(5-(8-amino-3-isopropyl-5-(4-(methylamino)cyclohex-1-en-1-yl)imidazo[1,5-a]pyrazin-1-yl)naphthalen-1-yl)-N-(3-fluorophenyl)acetamide], the negative-log IC50 (pIC50) is 6.54.

The compound `CNC1CC=C(c2cnc(N)c3c(-c4cccc5c(CC(=O)Nc6ccccc6)cccc45)nc(C(C)C)n23)CC1` (centres unmarked) [Example 82, 2-(5-(8-amino-3-isopropyl-5-(4-(methylamino)cyclohex-1-en-1-yl)imidazo[1,5-a]pyrazin-1-yl)naphthalen-1-yl)-N-phenylacetamide] had a pIC50 of 6.40.

As for `CNC1CC=C(c2cnc(N)c3c(-c4ccc(NC(=O)Nc5ccccc5)c5ccccc45)nc(C(C)C)n23)CC1` (centres unmarked) [Example 121, 1-(4-(8-Amino-3-isopropyl-5-(4-(methylamino)cyclohex-1-en-1-yl)imidazo[1,5-a]pyrazin-1-yl)naphthalen-1-yl)-3-phenylurea], the negative logarithm of the IC50 (pIC50) was 7.05.

Regarding `CNC1CC=C(c2cnc(N)c3c(-c4cccc5c(NC(=O)Nc6cccc(F)c6)cccc45)nc(C(C)C)n23)CC1` (centres unmarked) [Example 123, 1-(5-(8-amino-3-isopropyl-5-(4-(methylamino)cyclohex-1-en-1-yl)imidazo[1,5-a]pyrazin-1-yl)naphthalen-1-yl)-3-(3-fluorophenyl)urea], the pIC50 is 6.64.

In turn, `CNC1CC=C(c2cnc(N)c3c(-c4cccc5c(NC(=O)Nc6cccc(C(F)(F)F)c6)cccc45)nc(C(C)C)n23)CC1` (centres unmarked) [Example 124, 1-(5-(8-amino-3-isopropyl-5-(4-(methylamino)cyclohex-1-en-1-yl)imidazo[1,5-a]pyrazin-1-yl)naphthalen-1-yl)-3-(3-(trifluoromethyl)phenyl)urea] gave a negative logarithm of the IC50 (pIC50) of 6.37.

For `CNC1CC=C(c2cnc(N)c3c(-c4ccc(NC(=O)Nc5ccc6c(c5)OCCO6)cc4F)nc(C(C)C)n23)CC1` (centres unmarked) [Example 125, 1-(4-(8-amino-3-isopropyl-5-(4-(methylamino)cyclohex-1-en-1-yl)imidazo[1,5-a]pyrazin-1-yl)-3-fluorophenyl)-3-(2,3-dihydrobenzo[b][1,4]dioxin-6-yl)urea], the negative logarithm of the IC50 (pIC50) was 6.52. The pIC50 values of the last two compounds are within 0.2 log units of each other.

`CCc1nc(-c2ccc(NC(=O)Nc3cccc(F)c3)cc2F)c2c(N)ncc(C3=CCC(NC)CC3)n12` (centres unmarked) [Example 126, 1-(4-(8-amino-3-ethyl-5-(4-(methylamino)cyclohex-1-en-1-yl)imidazo[1,5-a]pyrazin-1-yl)-3-fluorophenyl)-3-(3-fluorophenyl)urea] gave a negative logarithm of the IC50 (pIC50) of 6.35.

Compound `CNC1CC=C(c2cnc(N)c3c(-c4ccc(NC(=O)Nc5cccc(F)c5)cc4F)nc(C(C)C)n23)CC1` (centres unmarked) [Example 129, 1-(4-(8-amino-3-isopropyl-5-(4-(methylamino)cyclohex-1-en-1-yl)imidazo[1,5-a]pyrazin-1-yl)-3-fluorophenyl)-3-(3-fluorophenyl)urea] had a negative logarithm of the IC50 (pIC50) of 6.55.

For `CNC1CC=C(c2cnc(N)c3c(-c4ccc(NC(=O)Nc5ccccc5)cc4F)nc(C(C)C)n23)CC1` (centres unmarked) [Example 130, 1-(4-(8-amino-3-isopropyl-5-(4-(methylamino)cyclohex-1-en-1-yl)imidazo[1,5-a]pyrazin-1-yl)-3-fluorophenyl)-3-phenylurea], the negative logarithm of the IC50 (pIC50) is 6.39.

Take `CNC1CC=C(c2cnc(N)c3c(-c4ccc(NC(=O)NCc5ccccc5)c5ccccc45)nc(C(C)C)n23)CC1` (centres unmarked) [Example 139, 1-(4-(8-amino-3-isopropyl-5-(4-(methylamino)cyclohex-1-en-1-yl)imidazo[1,5-a]pyrazin-1-yl)naphthalen-1-yl)-3-benzylurea]: the pIC50 was 6.42. The pIC50 values of the last two compounds are within 0.2 log units of each other.

Compound `CNC1CC=C(c2cnc(N)c3c(-c4ccc(NC(=O)Nc5ccc6c(c5)OCCO6)c5ccccc45)nc(C(C)C)n23)CC1` (centres unmarked) [Example 140, 1-(4-(8-amino-3-isopropyl-5-(4-(methylamino)cyclohex-1-en-1-yl)imidazo[1,5-a]pyrazin-1-yl)naphthalen-1-yl)-3-(2,3-dihydrobenzo[b][1,4]dioxin-6-yl)urea] showed a pIC50 of 7.11.

As to `CNC1CC=C(c2cnc(N)c3c(-c4ccc(NC(=O)Nc5cccc(OC)c5)c5ccccc45)nc(C(C)C)n23)CC1` (centres unmarked) [Example 141, 1-(4-(8-amino-3-isopropyl-5-(4-(methylamino)cyclohex-1-en-1-yl)imidazo[1,5-a]pyrazin-1-yl)naphthalen-1-yl)-3-(3-methoxyphenyl)urea], the pIC50 is 7.23.

Consider `CNC1CC=C(c2cnc(N)c3c(-c4ccc(NC(=O)Nc5cccc(C#N)c5)c5ccccc45)nc(C(C)C)n23)CC1` (centres unmarked) [Example 142, 1-(4-(8-amino-3-isopropyl-5-(4-(methylamino)cyclohex-1-en-1-yl)imidazo[1,5-a]pyrazin-1-yl)naphthalen-1-yl)-3-(3-cyanophenyl)urea], for which the negative-log IC50 (pIC50) was 7.03.

For `CNC1CC=C(c2cnc(N)c3c(-c4ccc(NC(=O)Nc5ccc(OC)c(OC)c5)c5ccccc45)nc(C(C)C)n23)CC1` (centres unmarked) [Example 143, 1-(4-(8-amino-3-isopropyl-5-(4-(methylamino)cyclohex-1-en-1-yl)imidazo[1,5-a]pyrazin-1-yl)naphthalen-1-yl)-3-(3,4-dimethoxyphenyl)urea], the pIC50 is 6.68. This pIC50 lies 0.35 log units lower than the previous one.

The compound `CNC1CC=C(c2cnc(N)c3c(-c4ccc(NC(=O)Nc5ccncc5)c5ccccc45)nc(C(C)C)n23)CC1` (centres unmarked) [Example 144, 1-(4-(8-amino-3-isopropyl-5-(4-(methylamino)cyclohex-1-en-1-yl)imidazo[1,5-a]pyrazin-1-yl)naphthalen-1-yl)-3-(pyridin-4-yl)urea] gave a pIC50 of 6.31. This pIC50 lies 0.37 log units lower than the previous one.

In the case of `CNC1CC=C(c2cnc(N)c3c(-c4ccc(NC(=O)Nc5ccc(F)cc5)c5ccccc45)nc(C(C)C)n23)CC1` (centres unmarked) [Example 145, 1-(4-(8-amino-3-isopropyl-5-(4-(methylamino)cyclohex-1-en-1-yl)imidazo[1,5-a]pyrazin-1-yl)naphthalen-1-yl)-3-(4-fluorophenyl)urea], the pIC50 was 7.13. Against the preceding compound, the pIC50 is 0.82 log units higher.

As for `CNC1CC=C(c2cnc(N)c3c(-c4ccc(NC(=O)Nc5cc(F)cc(OC)c5)cc4F)nc(C(C)C)n23)CC1` (centres unmarked) [Example 146, 1-(4-(8-amino-3-isopropyl-5-(4-(methylamino)cyclohex-1-en-1-yl)imidazo[1,5-a]pyrazin-1-yl)-3-fluorophenyl)-3-(3-fluoro-5-methoxyphenyl)urea], the pIC50 was 6.62.
